In the assay the target is MC4-R (Homo sapiens, UniProt P32245). In words: cAMP Scintillation Proximity Assay (SPA) in cells expressing MC4-R. The note with it: intercellular cAMP concentration by SPA kit, read-out: in vitro potency (as measured by EC50 value). The assay is classed as cell-based. The procedure: EC50 values of test compounds were determined by treating cells expressing MC4-R with test compound and lysing the cells and measuring intercellular cAMP concentration with an Amersham-Pharmacia RPA-559 cAMP Scintillation Proximity Assay (SPA) kit. The following compounds were synthesized and tested according to this assay. The following compounds are merely illustrative and should not be construed as limiting of the instant invention.
MC4-R, sequence (P32245 whole entry, species assumed): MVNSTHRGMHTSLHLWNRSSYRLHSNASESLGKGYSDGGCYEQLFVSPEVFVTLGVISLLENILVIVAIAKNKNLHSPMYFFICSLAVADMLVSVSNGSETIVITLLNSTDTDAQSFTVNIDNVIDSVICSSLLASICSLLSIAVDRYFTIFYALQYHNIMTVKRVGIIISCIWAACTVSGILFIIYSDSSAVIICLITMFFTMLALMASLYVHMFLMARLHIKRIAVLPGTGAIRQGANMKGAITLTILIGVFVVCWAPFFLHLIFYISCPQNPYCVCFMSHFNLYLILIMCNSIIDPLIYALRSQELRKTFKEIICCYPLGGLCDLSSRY
In general terms: Scintillation proximity formats need no separation of bound from free tracer.

The structures appear in SMILES notation.

As for `C[C@@H]1[C@@H](N=C(Nc2ccc3c(c2)C(=O)N([C@H](CO)[C@H](O)c2ccccc2)C3=O)N2CCN[C@@H](C)C2)C[C@H]2C[C@@H]1C2(C)C` [Example 15, (3S)-N-{2-[(1R,2R)-2-hydroxy-1-(hydroxymethyl)-2-phenylethyl]-1,3-dioxo-2,3-dihydro-1H-isoindol-5-yl}-3-methyl-N′-[(1S,2S,3S,5R)-2,6,6-trimethylbicyclo[3.1.1]hept-3-yl]piperazine-1-carboximidamide], the EC50 – broadly, the concentration needed to bring the measured effect to its halfway point – was under 3 µM.

With `COc1ccc(CCN2Cc3cc(NC(=N[C@H]4C[C@H]5C[C@@H]([C@@H]4C)C5(C)C)N4CCN[C@@H](C)C4)ccc3C2=O)c(F)c1` [Example 17, (3S)-N-{2-[2-(2-fluoro-4-methoxyphenyl)ethyl]-1-oxo-2,3-dihydro-1H-isoindol-5-yl}-3-methyl-N′-[(1S,2S,3S,5R)-2,6,6-trimethylbicyclo[3.1.1]hept-3-yl]piperazine-1-carboximidamide], the EC50 is under 3 µM.

Consider `Cc1ccc(CCN2C(=O)c3ccc(NC(=N[C@H]4C[C@H]5C[C@@H]([C@@H]4C)C5(C)C)N4CCN[C@@H](C)C4)cc3C2=O)c(C)c1` [Example 13, (3S)-N-{2-[2-(2,4-dimethylphenyl)ethyl]-1,3-dioxo-2,3-dihydro-1H-isoindol-5-yl}-3-methyl-N′-[(1S,2S,3S,5R)-2,6,6-trimethylbicyclo[3.1.1]hept-3-yl]piperazine-1-carboximidamide], for which the EC50 is under 3 µM.

In the case of `Cc1ccc(CCc2nc3ccc(NC(=N[C@H]4C[C@H]5C[C@@H]([C@@H]4C)C5(C)C)N4CCN[C@@H](C)C4)cc3[nH]2)c(C)c1` [Example 24, (3S)-N-{2-[2-(2,4-dimethylphenyl)ethyl]-1H-benzimidazol-6-yl}-3-methyl-N′-[(1S,2S,3S,5R)-2,6,6-trimethylbicyclo[3.1.1]hept-3-yl]piperazine-1-carboximidamide], the EC50 is under 3 µM.

Regarding `C[C@@H]1[C@@H](N=C(Nc2ccc3c(c2)C(=O)N([C@@H](CO)Cc2ccccc2)C3=O)N2CCN[C@@H](C)C2)C[C@H]2C[C@@H]1C2(C)C` [Example 6, (3S)-N-{2-[(1R)-1-benzyl-2-hydroxyethyl]-1,3-dioxo-2,3-dihydro-1H-isoindol-5-yl}-3-methyl-N′-[(1S,2S,3S,5R)-2,6,6-trimethylbicyclo[3.1.1]hept-3-yl]piperazine-1-carboximidamide], the EC50 was under 3 µM.

For `C[C@@H]1[C@@H](N=C(Nc2ccc3c(c2)C(=O)N([C@H](CO)Cc2ccc(Cl)cc2Cl)C3=O)N2CCN[C@@H](C)C2)C[C@H]2C[C@@H]1C2(C)C` [Example 8, (3S )-N-{2-[(1S)-1-(2,4-dichlorobenzyl)-2-hydroxyethyl]-1,3-dioxo-2,3-dihydro-1H-isoindol-5yl}-3-methyl-N′-[(1S,2S,3S,5R)-2,6,6-trimethylbicyclo[3.1.1]hept-3-yl]piperazine-1-carboximidamide], the EC50 was under 3 µM.

Consider `C[C@@H]1[C@@H](/N=C(\Nc2ccc3[nH]c(CCc4ccc(Cl)cc4Cl)nc3c2)N2CCN[C@@H](C)C2)C[C@H]2C[C@@H]1C2(C)C` [Example 23, (3S)-N-{2-[2-(2,4-dichlorophenyl)ethyl]-1H-benzimidazol-5-yl}-3-methyl-N′-[(1S,2S,3S,5R)-2,6,6-trimethylbicyclo[3.1.1]hept-3-yl]piperazine-1-carboximidamide], for which the EC50 was under 3 µM.

As to `COc1ccc(CCN2C(=O)c3ccc(NC(=N[C@H]4C[C@H]5C[C@@H]([C@@H]4C)C5(C)C)N4CCN[C@@H](C)C4)cc3C2=O)c(OC)c1` [Example 12, (3S)-N-{2-[2-(2,4-dimethoxyphenyl)ethyl]-1,3-dioxo-2,3-dihydro-1H-isoindol-5-yl}-3-methyl-N′-[(1S,2S,3S,5R)-2,6,6-trimethylbicyclo[3.1.1]hept-3-yl]piperazine-1-carboximidamide], the EC50 was under 3 µM.

Turning to `C[C@@H]1[C@@H](N=C(Nc2ccc3c(c2)C(=O)N([C@H](CO)Cc2ccccc2)C3=O)N2CCN[C@@H](C)C2)C[C@H]2C[C@@H]1C2(C)C` [Example 5, (3S)-N-{2-[(1S)-1-benzyl-2-hydroxyethyl]-1,3-dioxo-2,3-dihydro-1H-isoindol-5-yl}-3-methyl-N′-[(1S,2S,3S,5R)-2,6,6-trimethylbicyclo[3.1.1]hept-3-yl]piperazine-1-carboximidamide], the EC50 was under 3 µM.

For the compound `C[C@@H]1[C@@H](N=C(Nc2ccc3c(c2)C(=O)N(CCc2ccc(F)cc2F)C3)N2CCN[C@@H](C)C2)C[C@H]2C[C@@H]1C2(C)C` [Example 19, (3S)-N-{2-[2-(2,4-difluorophenyl)ethyl]-3-oxo-2,3-dihydro-1H-isoindol-5-yl}-3-methyl-N′-[(1S,2S,3S,5R)-2,6,6-trimethylbicyclo[3.1.1]hept-3-yl]piperazine-1-carboximidamide], the EC50 is under 3 µM.

With `C[C@@H]1[C@@H](N=C(Nc2ccc3c(c2)CCN(CCc2ccc(Cl)cc2Cl)C3=O)N2CCN[C@@H](C)C2)C[C@H]2C[C@@H]1C2(C)C` [Example 22, (3S)-N-{2-[2-(2,4-dichlorophenyl)ethyl]-1-oxo-1,2,3,4-tetrahydroisoquinolin-6-yl}-3-methyl-N′-[(1S,2S,3S,5R)-2,6,6-trimethylbicyclo[3.1.1]hept-3-yl]piperazine-1-carboximidamide], the EC50 was under 3 µM.

`C[C@@H]1[C@@H](N=C(Nc2ccc3nc(CCc4ccc(F)cc4Cl)[nH]c3c2)N2CCN[C@@H](C)C2)C[C@H]2C[C@@H]1C2(C)C` [Example 25, (3S)-N-{2-[2-(2-chloro-4-fluorophenyl)ethyl]-1H-benzimidazol-6-yl}-3-methyl-N′-[(1S,2S,3S,5R)-2,6,6-trimethylbicyclo[3.1.1]hept-3-yl]piperazine-1-carboximidamide]: the EC50 was under 3 µM.

`C[C@@H]1[C@@H](N=C(Nc2ccc3c(c2)CN(CCc2ccc(Cl)cc2Cl)C3=O)N2CCN[C@@H](C)C2)C[C@H]2C[C@@H]1C2(C)C` [Example 1, (3S)-N-{2-[2-(2,4-dichlorophenyl)ethyl]-1-oxo-2,3-dihydro-1H-isoindol-5-yl}-3-methyl-N′-[(1S,2S,3S,5R)-2,6,6-trimethylbicyclo[3.1.1]hept-3-yl]piperazine-1-carboximidamide]: the EC50 was under 3 µM.

Take `C[C@@H]1[C@@H](N=C(Nc2ccc3c(c2)C(=O)N(CCc2ccc(Cl)cc2Cl)C3)N2CCN[C@@H](C)C2)C[C@H]2C[C@@H]1C2(C)C` [Example 3, (3S )-N-{2-[2-(2,4-dichlorophenyl)ethyl]-3-oxo-2,3-dihydro-1H-isoindol-5-yl}-3-methyl-N′-[(1S,2S,3S,5R)-2,6,6-trimethylbicyclo[3.1.1]hept-3-yl]piperazine-1-carboximidamide]: the half-maximal effective concentration (EC50) was under 3 µM.

For `C[C@@H]1[C@@H](N=C(Nc2ccc3c(c2)C(=O)N([C@@H](CO)[C@H](O)c2ccccc2)C3=O)N2CCN[C@@H](C)C2)C[C@H]2C[C@@H]1C2(C)C` [Example 16, (3S )-N-{2-[(1S,2R)-2-hydroxy-1-(hydroxymethyl)-2-phenylethyl]-1,3-dioxo-2,3-dixo-2,3-dihydro-1H-isoindol-5-yl}-3-methyl-N′-[(1S,2S,3S,5R)-2,6,6-trimethylbicyclo[3.1.1]hept-3-yl]piperazine-1-carboximidamide], the EC50 was under 3 µM.

Consider `COc1ccc(CCN2C(=O)c3ccc(NC(=N[C@H]4C[C@H]5C[C@@H]([C@@H]4C)C5(C)C)N4CCN[C@@H](C)C4)cc3C2=O)c(F)c1` [Example 10, (3S)-N-{2-[2-(2-fluoro-4-methoxyphenyl)ethyl]-1,3-dioxo-2,3-dihydro-1H-isoindol-5yl}-3-methyl-N′-[(1S,2S,3S,5R)-2,6,6-trimethylbicyclo[3.1.1]hept-3-yl]piperazine-1-carboximidamide], for which the EC50 was under 3 µM.

For the compound `C[C@@H]1[C@@H](N=C(Nc2ccc3c(c2)CN(CCc2ccc(F)cc2F)C3=O)N2CCN[C@@H](C)C2)C[C@H]2C[C@@H]1C2(C)C` [Example 18, (3S)-N-{2-[2-(2,4-difluorophenyl)ethyl]-1-oxo-2,3-dihydro-1H-isoindol-5-yl}-3-methyl-N′-[(1S,2S,3S,5R)-2,6,6-trimethylbicyclo[3.1.1]hept-3-yl]piperazine-1-carboximidamide], the EC50 was under 3 µM.

As to `C[C@@H]1[C@@H](N=C(Nc2ccc3c(c2)CN([C@H](CO)Cc2ccc(Cl)cc2Cl)C3=O)N2CCN[C@@H](C)C2)C[C@H]2C[C@@H]1C2(C)C` [Example 9, (3S)-N-{2-[(1S)-1-(2,4-dichlorobenzyl)-2-hydroxyethyl]-1-oxo-2,3-dihydro-1H-isoindol-5yl}-3-methyl-N′-[(1S,2S,3S,5R)-2,6,6-trimethylbicyclo[3.1.1]hept-3-yl]piperazine-1-carboximidamide], the EC50 was under 3 µM.

`C[C@@H]1[C@@H](N=C(Nc2ccc3c(c2)C(=O)N(Cc2ccc(Cl)cc2Cl)C3=O)N2CCN[C@@H](C)C2)C[C@H]2C[C@@H]1C2(C)C` [Example 4, (3S)-N-[2-(2,4-dichlorobenzyl)-1,3-dioxo-2,3-dihydro-1H-isoindol-5-yl]-3-methyl-N′-[(1S,2S,3S,5R)-2,6,6-trimethylbicyclo[3.1.1]hept-3-yl]piperazine-1-carboximidamide]: the EC50 was under 3 µM.

In the case of `Cc1ccc(CCN2Cc3ccc(NC(=N[C@H]4C[C@H]5C[C@@H]([C@@H]4C)C5(C)C)N4CCN[C@@H](C)C4)cc3C2=O)c(C)c1` [Example 21, (3S)-N-{2-[2-(2,4-dimethylphenyl)ethyl]-3-oxo-2,3-dihydro-1H-isoindol-5-yl}-3-methyl-N′-[(1S,2S,3S,5R)-2,6,6-trimethylbicyclo[3.1.1]hept-3-yl]piperazine-1-carboximidamide], the EC50 is under 3 µM.

`C[C@@H]1[C@@H](N=C(Nc2ccc3c(c2)C(=O)N([C@@H](CO)[C@@H](O)c2ccccc2)C3=O)N2CCN[C@@H](C)C2)C[C@H]2C[C@@H]1C2(C)C` [Example 14, (3S)-N-{2-[(1S ,2S)-2-hydroxy-1-(hydroxymethyl)-2-phenylethyl]-1,3-dioxo-2,3-dihydro-1H-isoindol-5yl}-3-methyl-N′-[(1S,2S,3S,5R)-2,6,6-trimethylbicyclo[3.1.1]hept-3-yl]piperazine-1-carboximidamide]: the EC50 was under 3 µM.
